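GI50 marks 50% less growth. Definition used: TGI = concentration required for complete inhibition of growth.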
What was measured:
Experiment in all cases: growth of human tumour cells (NCI), 384-well format
RPMI-8226 leukemia = test system: RPMI-8226 leukemia
MOLT-4 leukemia = test system: MOLT-4 leukemia
HOP-62 NSCLC = test system: HOP-62 NSCLC
HOP-92 NSCLC = test system: HOP-92 NSCLC
SF-539 CNS = test system: SF-539 CNS
OVCAR-4 ovarian = test system: OVCAR-4 ovarian
NCI/ADR-RES ovarian = test system: NCI/ADR-RES ovarian
MDA-MB-468 breast = test system: MDA-MB-468 breast
NCI-H460 NSCLC = test system: NCI-H460 NSCLC
UO-31 renal = test system: UO-31 renal
MALME-3M melanoma = test system: MALME-3M melanoma
CCRF-CEM leukemia = test system: CCRF-CEM leukemia
CAKI-1 renal = test system: CAKI-1 renal
786-0 renal = test system: 786-0 renal
ACHN renal = test system: ACHN renal
SK-OV-3 ovarian = test system: SK-OV-3 ovarian
MCF7 breast = test system: MCF7 breast
SF-295 CNS = test system: SF-295 CNS
OVCAR-5 ovarian = test system: OVCAR-5 ovarian
COLO 205 colon = test system: COLO 205 colon
T-47D breast = test system: T-47D breast
MDA-MB-435 melanoma = test system: MDA-MB-435 melanoma
SK-MEL-28 melanoma = test system: SK-MEL-28 melanoma
HCT-15 colon = test system: HCT-15 colon
U251 glioblastoma = test system: U251 glioblastoma
A549 NSCLC = test system: A549 NSCLC
SK-MEL-2 melanoma = test system: SK-MEL-2 melanoma
SNB-19 CNS = test system: SNB-19 CNS
SF-268 CNS = test system: SF-268 CNS
HL-60(TB) leukemia = test system: HL-60(TB) leukemia
SW-620 colon = test system: SW-620 colon
TK-10 renal = test system: TK-10 renal
SR leukemia = test system: SR leukemia
DU-145 prostate = test system: DU-145 prostate
NCI-H226 lung = test system: NCI-H226 lung
NCI-H322M lung = test system: NCI-H322M lung
LOX IMVI melanoma = test system: LOX IMVI melanoma
A498 renal = test system: A498 renal
M14 melanoma = test system: M14 melanoma
K-562 leukemia = test system: K-562 leukemia
UACC-257 melanoma = test system: UACC-257 melanoma
RXF 393 renal = test system: RXF 393 renal
EKVX NSCLC = test system: EKVX NSCLC
NCI-H522 lung = test system: NCI-H522 lung
HT29 colon = test system: HT29 colon
SNB-75 CNS = test system: SNB-75 CNS
MDA-MB-231 breast = test system: MDA-MB-231 breast
NCI-H23 lung = test system: NCI-H23 lung
HCT-116 colon = test system: HCT-116 colon
PC-3 prostate = test system: PC-3 prostate
OVCAR-3 ovarian = test system: OVCAR-3 ovarian
SN12C renal = test system: SN12C renal
KM12 colon = test system: KM12 colon
UACC-62 melanoma = test system: UACC-62 melanoma
OVCAR-8 ovarian = test system: OVCAR-8 ovarian
BT-549 breast = test system: BT-549 breast
HCC-2998 colon = test system: HCC-2998 colon
IGROV1 ovarian = test system: IGROV1 ovarian
SK-MEL-5 melanoma = test system: SK-MEL-5 melanoma

Cc1cc(C)c(S(=O)(=O)N(CCc2cccc(Br)c2)Cc2ccc(-c3cccc(S(C)(=O)=O)c3)cc2)c(C)c1
GI50 (RPMI-8226 leukemia): > 100 µM | TGI (RPMI-8226 leukemia): > 100 µM | GI50 (MOLT-4 leukemia): > 100 µM | TGI (MOLT-4 leukemia): > 100 µM | GI50 (HOP-62 NSCLC): > 100 µM | TGI (HOP-62 NSCLC): > 100 µM | GI50 (HOP-92 NSCLC): > 100 µM | TGI (HOP-92 NSCLC): > 100 µM | GI50 (SF-539 CNS): > 100 µM | TGI (SF-539 CNS): > 100 µM | GI50 (OVCAR-4 ovarian): > 100 µM | TGI (OVCAR-4 ovarian): > 100 µM | GI50 (NCI/ADR-RES ovarian): > 100 µM | TGI (NCI/ADR-RES ovarian): > 100 µM | GI50 (MDA-MB-468 breast): > 100 µM | TGI (MDA-MB-468 breast): > 100 µM | GI50 (NCI-H460 NSCLC): > 100 µM | TGI (NCI-H460 NSCLC): > 100 µM | GI50 (UO-31 renal): > 100 µM | TGI (UO-31 renal): > 100 µM | GI50 (MALME-3M melanoma): > 100 µM | TGI (MALME-3M melanoma): > 100 µM | GI50 (CCRF-CEM leukemia): > 100 µM | TGI (CCRF-CEM leukemia): > 100 µM | GI50 (CAKI-1 renal): > 81.9 µM | TGI (CAKI-1 renal): > 100 µM | GI50 ([…]-0 renal): > 100 µM | TGI (786-0 renal): > 100 µM | GI50 (ACHN renal): > 100 µM | TGI (ACHN renal): > 100 µM | GI50 (SK-OV-3 ovarian): > 100 µM | TGI (SK-OV-3 ovarian): > 100 µM | GI50 (MCF7 breast): > 100 µM | TGI (MCF7 breast): > 100 µM | GI50 (SF-295 CNS): 0.0672 µM | GI50 (OVCAR-5 ovarian): > 100 µM | TGI (OVCAR-5 ovarian): > 100 µM | GI50 (COLO 205 colon): > 100 µM | TGI (COLO 205 colon): > 100 µM | GI50 (T-47D breast): > 100 µM | TGI (T-47D breast): > 100 µM | GI50 (MDA-MB-435 melanoma): > 100 µM | TGI (MDA-MB-435 melanoma): > 100 µM | GI50 (SK-MEL-28 melanoma): > 100 µM | TGI (SK-MEL-28 melanoma): > 100 µM | GI50 (HCT-15 colon): > 100 µM | TGI (HCT-15 colon): > 100 µM | GI50 (U251 glioblastoma): > 100 µM | TGI (U251 glioblastoma): > 100 µM | GI50 (A549 NSCLC): > 100 µM | TGI (A549 NSCLC): > 100 µM | GI50 (SK-MEL-2 melanoma): > 100 µM | TGI (SK-MEL-2 melanoma): > 100 µM | GI50 (SNB-19 CNS): > 100 µM | TGI (SNB-19 CNS): > 100 µM | GI50 (SF-268 CNS): > 100 µM | TGI (SF-268 CNS): > 100 µM | TGI (HL-60(TB) leukemia): > 100 µM | GI50 (SW-620 colon): > 100 µM | TGI (SW-620 colon): > 100 µM | GI50 (TK-10 renal): > 100 µM | TGI (TK-10 renal): > 100 µM | TGI (SR leukemia): > 100 µM | GI50 (DU-145 prostate): > 100 µM | TGI (DU-145 prostate): > 100 µM | GI50 (NCI-H226 lung): > 100 µM | TGI (NCI-H226 lung): > 100 µM | GI50 (NCI-H322M lung): > 100 µM | TGI (NCI-H322M lung): > 100 µM | GI50 (LOX IMVI melanoma): > 100 µM | TGI (LOX IMVI melanoma): > 100 µM | GI50 (A498 renal): > 100 µM | TGI (A498 renal): > 100 µM | GI50 (M14 melanoma): > 100 µM | TGI (M14 melanoma): > 100 µM | GI50 (K-562 leukemia): > 100 µM | TGI (K-562 leukemia): > 100 µM | GI50 (UACC-257 melanoma): > 100 µM | TGI (UACC-257 melanoma): > 100 µM | GI50 (RXF 393 renal): > 100 µM | TGI (RXF 393 renal): > 100 µM | GI50 (EKVX NSCLC): > 100 µM | TGI (EKVX NSCLC): > 100 µM | GI50 (NCI-H522 lung): > 100 µM | TGI (NCI-H522 lung): > 100 µM | GI50 (HT29 colon): > 100 µM | TGI (HT29 colon): > 100 µM | GI50 (SNB-75 CNS): > 100 µM | TGI (SNB-75 CNS): > 100 µM | GI50 (MDA-MB-231 breast): > 100 µM | TGI (MDA-MB-231 breast): > 100 µM | GI50 (NCI-H23 lung): > 100 µM | TGI (NCI-H23 lung): > 100 µM | GI50 (HCT-116 colon): > 100 µM | TGI (HCT-116 colon): > 100 µM | GI50 (PC-3 prostate): > 100 µM | TGI (PC-3 prostate): > 100 µM | GI50 (OVCAR-3 ovarian): > 100 µM | TGI (OVCAR-3 ovarian): > 100 µM | GI50 (SN12C renal): > 100 µM | TGI (SN12C renal): > 100 µM | GI50 (KM12 colon): > 100 µM | TGI (KM12 colon): > 100 µM | GI50 (UACC-62 melanoma): > 100 µM | TGI (UACC-62 melanoma): > 100 µM | GI50 (OVCAR-8 ovarian): > 100 µM | TGI (OVCAR-8 ovarian): > 100 µM | GI50 (BT-549 breast): > 100 µM | TGI (BT-549 breast): > 100 µM | GI50 (HCC-2998 colon): > 100 µM | TGI (HCC-2998 colon): > 100 µM | GI50 (IGROV1 ovarian): > 100 µM | TGI (IGROV1 ovarian): > 100 µM | GI50 (SK-MEL-5 melanoma): > 100 µM | TGI (SK-MEL-5 melanoma): > 100 µM

— PubChem BioAssay (NCI)
